According to patent US6281352:
Read-outs that look alike come from different tables or passages of the source.

## CNC(=O)[C@@H]1CCCCN(S(=O)(=O)C(F)(F)F)CCC[C@H](C(=O)OC(C)(C)C)[C@@H](CC(C)C)C(=O)N1
From CNC(=O)[C@H](CCCCNS(=O)(=O)C(F)(F)F)NC(=O)[C@H](CC(C)C)[C@H](CCCO)C(=O)OC(C)(C)C, amine bond, DIAD/PPh3, THF, 15.6 mM, 16.0 h, 2 steps
  ring closure, yield of all isomers: 52%

## CNC(=O)[C@@H]1CCCCN(S(=O)(=O)c2c(C)cc(C)cc2C)CCC[C@H](C(=O)OC(C)(C)C)[C@@H](CC(C)C)C(=O)N1
From CNC(=O)[C@H](CCCCNS(=O)(=O)c1c(C)cc(C)cc1C)NC(=O)[C@H](CC(C)C)[C@H](CCCO)C(=O)OC(C)(C)C, amine bond, PPh3/DIAD, THF, 21.5 mM, 16.0 h, 2 steps
  ring closure, yield of all isomers: 30%

## CNC(=O)[C@@H]1CCC(=O)OCCC[C@H](C(=O)OC(C)(C)C)[C@@H](CC(C)C)C(=O)N1
From CNC(=O)[C@H](CCC(=O)O)NC(=O)[C@H](CC(C)C)[C@H](CCCO)C(=O)OC(C)(C)C, ester bond, PPh3/DIAD, THF, 9.4 mM, 16.0 h, 2 steps
  ring closure, yield of all isomers: 24%

## CNC(=O)[C@@H]1CCCCNC(=O)C[C@H](C(=O)OC(C)(C)C)N[C@@H](CCc2ccccc2)C(=O)N1
From CNC(=O)[C@@H](N)CCCCNC(=O)C[C@@H](N[C@@H](CCc1ccccc1)C(=O)O)C(=O)OC(C)(C)C, amide bond, BOP, DMF, 24.0 h, 2 steps
  ring closure, yield of all isomers: 30%

## C=C1CO[C@H](COCc2ccccc2)[C@@H](C/C=C/c2ccccc2)C(=O)N[C@H](C(=O)NC)CCCN(C(C)=O)C1
From C=C(CBr)CO[C@H](COCc1ccccc1)[C@@H](C/C=C/c1ccccc1)C(=O)N[C@@H](CCCN)C(=O)NC, amine bond, diisopropylethylamine, acetonitrile, 2.1 mM, 3 steps
  ring closure, yield of all isomers: 76%

## CNC(=O)[C@@H]1CCCCNC(=O)CC[C@H](C(=O)OC(C)(C)C)N[C@@H](CCc2ccccc2)C(=O)N1
From CNC(=O)[C@@H](N)CCCCNC(=O)CC[C@@H](N[C@@H](CCc1ccccc1)C(=O)O)C(=O)OC(C)(C)C, amide bond, BOP, DMF, 24.0 h
  ring closure, yield of all isomers: 16%

## COC(=O)[C@@H]1Cc2ccc(cc2)OCCC[C@H](C(=O)OC(C)(C)C)[C@@H](CC(C)C)C(=O)N1
From COC(=O)[C@H](Cc1ccc(O)cc1)NC(=O)[C@H](CC(C)C)[C@H](CCCBr)C(=O)OC(C)(C)C, ether bond, Cs2CO3, DMF, 32.8 mM, 80.0 °C, 0.75 h
  ring closure, yield of all isomers: 74%

## CNC(=O)[C@@H]1CCCCN(S(=O)(=O)c2ccc([N+](=O)[O-])cc2)CCC[C@H](C(=O)OC(C)(C)C)[C@@H](CC(C)C)C(=O)N1
From CNC(=O)[C@H](CCCCNS(=O)(=O)c1ccc([N+](=O)[O-])cc1)NC(=O)[C@H](CC(C)C)[C@H](CCCO)C(=O)OC(C)(C)C, amine bond, PPh3/DIAD, THF, 24.7 mM
  ring closure, yield of all isomers: 26%

## COC(=O)[C@@H]1CCCc2ccc(cc2)OCCC[C@H](C(=O)OC(C)(C)C)[C@@H](CC(C)C)C(=O)N1
From COC(=O)[C@H](CCCc1ccc(O)cc1)NC(=O)[C@H](CC(C)C)[C@H](CCCBr)C(=O)OC(C)(C)C, ether bond, Cs2CO3, DMF, 8.7 mM, 0.0 °C, 2.0 h
  ring closure, yield of all isomers: 32%

## CNC(=O)[C@@H]1CCCCN(S(=O)(=O)c2cn(C)cn2)CCC[C@H](C(=O)OC(C)(C)C)[C@@H](CC(C)C)C(=O)N1
From CNC(=O)[C@H](CCCCNS(=O)(=O)c1cn(C)cn1)NC(=O)[C@H](CC(C)C)[C@H](CCCO)C(=O)OC(C)(C)C, amine bond, PPh3/DIAD, THF, 17.1 mM, 16.0 h
  ring closure, yield of all isomers: 52%
